From article PMC12741935 (Alzheimer's & Dementia, 2025)

Legend:
[1] = In vivo PK in CD-1 mice, plasma and brain by LC-MS/MS; settings: for Mean concentration in brain: ± SD, n=3; for AUC(0-inf): AUCInf
Description: Initial in vivo PK studies to confirm oral bioavailability and brain exposure were conducted at Pharmaron (Beijing, China) in non‐fasted male CD‐1 mice (6–8 weeks of age; sourced from Vital River). […] The dose volume was 10 mL/kg.
Next, we evaluated brain and plasma PK of 10 mg/kg (1 hour pre, IP, n = 3). Experiments then were conducted to confirm and extend initial PK data and evaluate brain and plasma levels at doses of 1, 10, and 100 mg/kg after oral administration at 1, 3, and 8 hours post dose (n = 3 per dose per timepoint).
Serial blood was collected via the dorsal metatarsal vein into ethylenediaminetetraacetic acid‐K2 coated tubes and centrifuged at 4°C x 4000 g for 5 minutes to obtain plasma that was aliquoted and stored at −80°C until analysis. For terminal studies, blood was collected via cardiac puncture under isoflurane anesthesia. Whole brain was homogenized at a ratio of 1:3 with PBS (W:V, 1:3).
For sample analysis liquid chromatography tandem mass spectrometry (LC‐MS/MS) was conducted using an AB Sciex Triple Quad 5500 LC/MS/MS instrument. Briefly, the desired serial concentrations of working solutions were achieved by diluting stock solution of analyte with 50% acetonitrile in water solution. Ten µL of working solutions (0.5, 1, 2, 5, 10, 50, 100, 500, and 1000 ng/mL) were added to 10 µL of the blank CD1 mouse plasma/brain homogenate to achieve calibration standards of 0.5 to 1000 ng/mL (0.5, 1, 2, 5, 10, 50, 100, 500, and 1000 ng/mL) in a total volume of 20 µL. Five quality control (QC) samples at 1 ng/mL, 2 ng/mL, 5 ng/mL, 50 ng/mL, and 800 ng/mL for plasma/brain homogenate were prepared independently of those used for the calibration curves. These QC samples were prepared on the day of analysis in the same way as calibration standards. Twenty µL standards, 20 µL QC samples, and 20 µL unknown samples (10 µL plasma/brain homogenate with 10 µL blank solution) were added to 200 µL of acetonitrile containing internal standard (IS) mixture for precipitating protein, respectively. The samples were vortexed for 30 seconds followed by centrifugation at 4°C x 2600 g for 15 minutes. The supernatant was diluted at a ratio of 1:2 with H2O (V/V, 1:2), 5 µL of diluted supernatant was injected into the LC‐MS/MS system for quantitative analysis. The lower limit of quantification (LLOQ) was 0.5 ng/mL for plasma and 1 ng/mL for brain. PK parameters were estimated by non‐compartmental model analysis using WinNonlin 8.3.

[2] = Adverse event observation in CD-1 PK study; assay type: in vivo; settings: 10 mg/kg IP, CD-1 mice
Description: The dose volume was 10 mL/kg.

[3] = male, CD-1, mouse, brain, oral, 10 mg/kg
[4] = male, CD-1, mouse, brain, oral, 100 mg/kg
[5] = male, CD-1, mouse, brain, po, 10 mg/kg, 10 mg/kg PO
[6] = male, CD-1, mouse, brain, po, 100 mg/kg, 100 mg/kg PO
[7] = male, CD-1, mouse, plasma, ip, 10 mg/kg, 10 mg/kg IP, sampling 0.5, 1, 3, 5 h
[8] = male, CD-1, mouse, plasma, po, 1 mg/kg, 1 mg/kg PO
[9] = male, CD-1, mouse, plasma, po, 10 mg/kg, 10 mg/kg PO, sampling 0.5, 1, 3, 5 h
[10] = male, CD-1, mouse, plasma, po, 10 mg/kg, 10 mg/kg PO, sampling 1, 3, 8 h
[11] = male, CD-1, mouse, plasma, po, 100 mg/kg, 100 mg/kg PO
[12] = plasma, 10 mg/kg IP, sampling 0.5, 1, 3, 5 h
[13] = plasma, 10 mg/kg PO, sampling 0.5, 1, 3, 5 h
[14] = plasma, 10 mg/kg PO, sampling 1, 3, 8 h

In the case of `CC(C)NC(=O)N1CC[C@H](NC2=Nc3cc(F)ccc3N(CC(F)F)c3ccc(Cl)cc32)C1` [NVS‐PAK1‐1, (S)‐3‐([2‐chloro‐5‐(2,2‐difluoroethyl)‐8‐fluoro‐5H‐dibenzo[b,e][1,4]diazepin‐11‐yl]amino)‐N‐isopropylpyrrolidine‐1‐carboxamide], the “Mean concentration in brain” value ([1]; 1 mg/kg PO, 1 h post dose) is reported as “BLOQ”, the “Mean concentration in brain” value ([1]; 1 mg/kg PO, 3 h post dose) is reported as “BLOQ” and the “Mean concentration in brain” value ([1]; 1 mg/kg PO, 8 h post dose) is reported as “BLOQ”. For the same compound, the concentration in brain ([1]; 1 mg/kg PO, at 1, 3 and 8 hours post dose) was < 1 ng/mL, the “Mean concentration in brain” value ([1]; 10 mg/kg PO, 8 h post dose) was “BLOQ” and the “Mean concentration in brain” value ([1]; 100 mg/kg PO, 8 h post dose) was “detectable”. For the same compound, the AUC_%Extrap_obs ([1]; brain, 10 mg/kg PO) was 15.3%, the AUClast/D ([1]; brain, 10 mg/kg PO) was 5.74 h·ng/mL per mg/kg and the AUC_%Extrap_obs ([1]; brain, 100 mg/kg PO) was 1.34%. For the same compound, the AUClast/D ([1]; brain, 100 mg/kg PO) was 13.8 h·ng/mL per mg/kg, the concentration at 1 h ([1]; male, CD-1, mouse, brain, intraperitoneal, 10 mg/kg) was 112 ± 14 ng/g and the concentration at 1 h [1, 3] was 33.2 ± 13 ng/g. The concentration at 3 h [1, 3] was 7.62 ± 1.16 ng/g, the concentration at 1 h [1, 4] was 759 ± 379 ng/g and the concentration at 3 h [1, 4] was 61.6 ± 3.5 ng/g. It also gave a concentration at 8 h [1, 4] of 14.3 ± 5.4 ng/g, an AUC(0-inf) [1, 5] of 67.8 ng·h/mL and an AUC(0-t) ([1]; male, CD-1, mouse, brain, po, 10 mg/kg, AUClast, 10 mg/kg PO) of 57.4 ng·h/mL. The Cmax [1, 5] was 33.2 ng/mL, the MRT inf ([1]; male, CD-1, mouse, brain, po, 10 mg/kg, MRTInf_obs, 10 mg/kg PO) was 1.74 h and the half-life ([1]; male, CD-1, mouse, brain, po, 10 mg/kg, T1/2, brain, 10 mg/kg PO) was 0.942 h. It also gave a Tmax [1, 5] of 1 h, an AUC(0-inf) [1, 6] of 1400 ng·h/mL and an AUC(0-t) ([1]; male, CD-1, mouse, brain, po, 100 mg/kg, AUClast, 100 mg/kg PO) of 1380 ng·h/mL. For the same compound, the Cmax [1, 6] was 759 ng/mL, the half-life ([1]; male, CD-1, mouse, brain, po, 100 mg/kg, T1/2, brain, 100 mg/kg PO) was 1.23 h and the Tmax [1, 6] was 1 h. The Kp at 1 h ([1]; male, CD-1, mouse, brain/plasma, ip, 10 mg/kg) was 0.25, the Kp ([1]; male, CD-1, mouse, brain/plasma, po, 10 mg/kg) was 0.21 and the Kp ([1]; male, CD-1, mouse, brain/plasma, po, 100 mg/kg) was 0.302. It also gave an AUC(0-t) ([1]; male, CD-1, mouse, in vivo, po, 1 mg/kg) of 27.2 ng·h/mL, an MRT inf ([1]; male, CD-1, mouse, in vivo, po, 100 mg/kg) of 1.56 h and a concentration at 1 h ([1]; male, CD-1, mouse, plasma, intraperitoneal, 10 mg/kg) of 448 ± 65 ng/mL. For the same compound, the AUC(0-inf) [1, 7] was 1170 ng·h/mL, the AUC(0-t) ([1]; male, CD-1, mouse, plasma, ip, 10 mg/kg, AUClast, 10 mg/kg IP, sampling 0.5, 1, 3, 5 h) was 1150 ng·h/mL and the Cmax [1, 7] was 878 ng/mL. The MRT inf ([1]; male, CD-1, mouse, plasma, ip, 10 mg/kg, MRTInf_obs, 10 mg/kg IP, sampling 0.5, 1, 3, 5 h) was 1.1 h, the half-life ([1]; male, CD-1, mouse, plasma, ip, 10 mg/kg, T1/2, plasma, 10 mg/kg IP, sampling 0.5, 1, 3, 5 h) was 0.814 h and the Tmax [1, 7] was 0.5 h. The AUC(0-inf) [1, 8] was 31.6 ng·h/mL, the Cmax [1, 8] was 8.1 ng/mL and the MRT inf ([1]; male, CD-1, mouse, plasma, po, 1 mg/kg, MRTInf_obs, 1 mg/kg PO) was 3.92 h. The half-life ([1]; male, CD-1, mouse, plasma, po, 1 mg/kg, T1/2, plasma, 1 mg/kg PO) was 2.62 h, the Tmax [1, 8] was 1 h and the AUC(0-inf) [1, 9] was 252 ng·h/mL. For the same compound, the AUC(0-inf) [1, 10] was 280 ng·h/mL, the AUC(0-t) ([1]; male, CD-1, mouse, plasma, po, 10 mg/kg, AUClast, 10 mg/kg PO, sampling 0.5, 1, 3, 5 h) was 223 ng·h/mL and the AUC(0-t) ([1]; male, CD-1, mouse, plasma, po, 10 mg/kg, AUClast, 10 mg/kg PO, sampling 1, 3, 8 h) was 274 ng·h/mL. The Cmax [1, 9] was 130 ng/mL, the Cmax [1, 10] was 112 ng/mL and the MRT inf ([1]; male, CD-1, mouse, plasma, po, 10 mg/kg, MRTInf_obs, 10 mg/kg PO, sampling 0.5, 1, 3, 5 h) was 2.19 h. For the same compound, the MRT inf ([1]; male, CD-1, mouse, plasma, po, 10 mg/kg, MRTInf_obs, 10 mg/kg PO, sampling 1, 3, 8 h) was 2.1 h, the half-life ([1]; male, CD-1, mouse, plasma, po, 10 mg/kg, T1/2, plasma, 10 mg/kg PO, sampling 0.5, 1, 3, 5 h) was 1.56 h and the half-life ([1]; male, CD-1, mouse, plasma, po, 10 mg/kg, T1/2, plasma, 10 mg/kg PO, sampling 1, 3, 8 h) was 1.4 h. The Tmax [1, 9] was 0.5 h, the Tmax [1, 10] was 1 h and the AUC(0-inf) [1, 11] was 4720 ng·h/mL. The AUC(0-t) ([1]; male, CD-1, mouse, plasma, po, 100 mg/kg, AUClast, 100 mg/kg PO) was 4570 ng·h/mL, the Cmax [1, 11] was 2330 ng/mL and the MRT inf ([1]; male, CD-1, mouse, plasma, po, 100 mg/kg, MRTInf_obs, 100 mg/kg PO) was 1.91 h. For the same compound, the half-life ([1]; male, CD-1, mouse, plasma, po, 100 mg/kg, T1/2, plasma, 100 mg/kg PO) was 1.5 h, the Tmax [1, 11] was 1 h and the AUC_%Extrap_obs ([1]; plasma, 1 mg/kg PO) was 14.0%. For the same compound, the AUClast/D ([1]; plasma, 1 mg/kg PO) was 27.2 h·ng/mL per mg/kg, the AUC_%Extrap_obs [1, 12] was 1.62% and the AUClast/D [1, 12] was 115 h·ng/mL per mg/kg. For the same compound, the AUC_%Extrap_obs [1, 13] was 11.3%, the AUClast/D [1, 13] was 22.3 h·ng/mL per mg/kg and the AUC_%Extrap_obs [1, 14] was 2.29%. It also gave an AUClast/D [1, 14] of 27.4 h·ng/mL per mg/kg, an AUC_%Extrap_obs ([1]; plasma, 100 mg/kg PO) of 3.08% and an AUClast/D ([1]; plasma, 100 mg/kg PO) of 45.7 h·ng/mL per mg/kg. For the same compound, the adverse events [2] was “No adverse events were observed”.
